# ChEMBL document CHEMBL1201862, “PubChem BioAssay data set” (2004)
#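 Five concentrations, 48 hours, 96-well plates. GI50: concentration for 50% inhibition of growth.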 The source made the active and inactive calls. Cut-off read from the data, not from the text of the source: active = GI50 up to about 1.1 µM and inactive = higher.
# Experiments:
# Experiment in all cases: NCI-60 cell line screen, 48 h
# [1] = tested on: HT-29
# [2] = tested on: SF-539
# [3] = tested on: U-251
# [4] = tested on: MDA-N
# [5] = tested on: SNB-19
# [6] = tested on: OVCAR-8
# [7] = tested on: RXF 393
# [8] = tested on: MDA-MB-231
# [9] = tested on: UO-31
# [10] = tested on: SK-MEL-28
# [11] = tested on: BT-549
# [12] = tested on: HCT-15
# [13] = tested on: A549
# [14] = tested on: Hs-578T
# [15] = tested on: SNB-78
# [16] = tested on: EKVX
# [17] = tested on: NCI-H522
# [18] = tested on: UACC-257
# [19] = tested on: M14
# [20] = tested on: HCC 2998
# [21] = tested on: SK-MEL-2
# [22] = tested on: MCF7
# [23] = tested on: SN12C
# [24] = tested on: M19-MEL
# [25] = tested on: OVCAR-4
# [26] = tested on: NCI-H460
# [27] = tested on: NCI-H23
# [28] = tested on: IGROV-1
# [29] = tested on: SF-295
# [30] = tested on: CCRF-CEM
# [31] = tested on: DMS-114
# [32] = tested on: SK-OV-3
# [33] = tested on: LXFL 529
# [34] = tested on: KM12
# [35] = tested on: HOP-62
# [36] = tested on: RPMI-8226
# [37] = tested on: DMS-273
# [38] = tested on: SNB-75
# [39] = tested on: LOX IMVI
# [40] = tested on: RXF 631
# [41] = tested on: HOP-92
# [42] = tested on: MOLT-4
# [43] = tested on: K562
# [44] = tested on: HL-60
# [45] = tested on: OVCAR-3
# [46] = tested on: HOP-18
# [47] = tested on: PC-3
# [48] = tested on: ACHN
# [49] = tested on: TK-10
# [50] = tested on: A498
# [51] = tested on: SW-620
# [52] = tested on: SK-MEL-5
# [53] = tested on: UACC-62
# [54] = tested on: MDA-MB-435
# [55] = tested on: NCI-H226
# [56] = tested on: XF498
# [57] = tested on: T47D
# [58] = tested on: NCI/ADR-RES
# [59] = tested on: SR
# [60] = tested on: OVCAR-5
# [61] = tested on: KM-20L2
# [62] = tested on: DU-145
# [63] = tested on: SF-268
# [64] = tested on: CAKI-1
# [65] = tested on: HCT-116
# [66] = tested on: 786-0
# [67] = tested on: DLD-1
# [68] = tested on: Malme-3M
# [69] = tested on: COLO 205
compound,measurement,setting,value
C/C(=N\N)C(CN(C)C)C(c1ccccc1)c1c(O)c2ccccc2oc1=O (centres undefined),GI50,[1],> 100 µM (inactive)
same,GI50,[2],> 100 µM (inactive)
same,GI50,[3],> 87.1 µM (inactive)
same,GI50,[4],> 100 µM (inactive)
same,GI50,[5],> 100 µM (inactive)
same,GI50,[6],> 100 µM (inactive)
same,GI50,[7],> 55.6 µM (inactive)
same,GI50,[8],> 100 µM (inactive)
same,GI50,[9],> 100 µM (inactive)
same,GI50,[10],> 100 µM (inactive)
same,GI50,[11],> 100 µM (inactive)
same,GI50,[12],> 100 µM
same,GI50,[13],> 100 µM (inactive)
same,GI50,[14],> 100 µM (inactive)
same,GI50,[15],> 100 µM (inactive)
same,GI50,[16],> 70.8 µM (inactive)
same,GI50,[17],> 94.4 µM (inactive)
same,GI50,[18],> 100 µM (inactive)
same,GI50,[19],> 100 µM (inactive)
same,GI50,[20],> 100 µM (inactive)
same,GI50,[21],> 100 µM (inactive)
same,GI50,[22],> 100 µM (inactive)
same,GI50,[23],> 100 µM (inactive)
same,GI50,[24],95.7 µM (inactive)
same,GI50,[25],> 65.6 µM (inactive)
same,GI50,[26],> 100 µM (inactive)
same,GI50,[27],> 100 µM (inactive)
same,GI50,[28],> 100 µM (inactive)
same,GI50,[29],> 86.3 µM (inactive)
same,GI50,[30],> 27 µM (inactive)
same,GI50,[31],51.9 µM (inactive)
same,GI50,[32],> 100 µM (inactive)
same,GI50,[33],> 100 µM (inactive)
same,GI50,[34],> 100 µM (inactive)
same,GI50,[35],> 100 µM (inactive)
same,GI50,[36],97.3 µM (inactive)
same,GI50,[37],> 100 µM (inactive)
same,GI50,[38],> 42.4 µM (inactive)
same,GI50,[39],> 94.4 µM (inactive)
same,GI50,[40],> 100 µM (inactive)
same,GI50,[41],25.2 µM (inactive)
same,GI50,[42],> 55.5 µM (inactive)
same,GI50,[43],> 60 µM (inactive)
same,GI50,[44],> 26.7 µM (inactive)
same,GI50,[45],> 100 µM (inactive)
same,GI50,[46],> 100 µM (inactive)
same,GI50,[47],> 100 µM (inactive)
same,GI50,[48],99.5 µM (inactive)
same,GI50,[49],> 100 µM (inactive)
same,GI50,[50],> 100 µM (inactive)
same,GI50,[51],> 100 µM (inactive)
same,GI50,[52],> 100 µM (inactive)
same,GI50,[53],> 73.6 µM (inactive)
same,GI50,[54],> 100 µM (inactive)
same,GI50,[55],> 100 µM (inactive)
same,GI50,[56],36.4 µM (inactive)
same,GI50,[57],> 10 µM (inactive)
same,GI50,[58],> 100 µM (inactive)
same,GI50,[59],> 67.1 µM (inactive)
same,GI50,[60],> 100 µM (inactive)
same,GI50,[61],> 100 µM (inactive)
same,GI50,[62],> 100 µM (inactive)
same,GI50,[63],> 100 µM (inactive)
same,GI50,[64],> 100 µM (inactive)
same,GI50,[65],> 80 µM (inactive)
same,GI50,[66],> 100 µM (inactive)
same,GI50,[67],> 100 µM (inactive)
same,GI50,[68],> 94.2 µM (inactive)
same,GI50,[69],> 100 µM (inactive)
